Source: PMC10969742, “A Phase I Study of the Oral Dual-Acting Pan-PI3K/mTOR Inhibitor Bimiralisib in Patients with Advanced Solid Tumors” (Cancers, 2024)
Read-outs that look alike come from different tables or passages of the source.

Assay: Plasma pharmacokinetics of bimiralisib, non-compartmental analysis (LC-MS)
Type: in vivo, human
Conditions: for AUC(0-t) / Cmax / Tmax: human, plasma, oral; for Cmax: read-out: Cmax Mean (%CV); for Tmax: read-out: Tmax Median, (Range)
Protocol: Blood samples were collected to enable full PK profiling of bimiralisib. The PK samples were taken pre-dose and at 0.5, 1, 2, 4, 6, 8, and 24 h post-dosing in the three schedules, with additional timepoints depending on the schedule (48 h in the continuous schedule, 12, 16, and 48 h in intermittent schedule A and 12, 16, and 72 h in intermittent schedule B). PK sampling was repeated on cycle 1 Day 8 (continuous schedule: pre-dose and 1 h post-dose; intermittent schedules A and B: pre-dose and 0.5, 1, 2, 4, 6, 8, and 24 h post-dose), on cycle 1 Day 15 (continuous schedule: pre-dose and 0.5, 1, 2, 4, 6 and 8 h post-dose; intermittent schedules A and B: pre-dose and 4 h post-dose), and on cycle 2 Day 1 (continuous dosing: pre-dose and 1 h post-dose). Samples were sent to a central laboratory for analysis using liquid-chromatography mass spectrometry. The pharmacokinetics of bimiralisib were determined by non-compartmental analysis. Area under the concentration vs. time curve (AUC) was calculated using the linear up log down trapezoidal method. Accumulation was calculated as the ratio of cycle 1 on Day 15 AUC0–8h versus cycle 1 on Day -3 AUC0–8h.

[1] = 80 mg, Continuous Dosing, 80 mg, Day 15, 7 patients
[2] = 80 mg, Continuous Dosing, 80 mg, Day -3, 11 patients
[3] = 80 mg, Intermittent Dose Schedule A, 80 mg, Day 8, 3 patients
[4] = 80 mg, Intermittent Dose Schedule A, 80 mg, Day -3, 4 patients
[5] = 80 mg, Intermittent Dose Schedule B, 80 mg, Day 1, 4 patients
[6] = 80 mg, Intermittent Dose Schedule B, 80 mg, Day 8, 4 patients
[7] = 100 mg, Continuous Dosing, 100 mg, Day 1, 5 patients
[8] = 100 mg, Continuous Dosing, 100 mg, Day 15, 2 patients
[9] = 100 mg, Intermittent Dose Schedule A, 100 mg, Day -3, 4 patients
[10] = 100 mg, Intermittent Dose Schedule B, 100 mg, Day 1, 7 patients
[11] = 100 mg, Intermittent Dose Schedule B, 100 mg, Day 8, 6 patients
[12] = 120 mg, Continuous Dosing, 120 mg, Day 1, 5 patients
[13] = 120 mg, Continuous Dosing, 120 mg, Day 15, 1 patient
[14] = 120 mg, Intermittent Dose Schedule A, 120 mg, Day 8, 3 patients

**Q.** Which “Dose proportionality of concentration-time data” value (all dosing schedules, 80–200 mg) does the source give for Nc1cc(C(F)(F)F)c(-c2nc(N3CCOCC3)nc(N3CCOCC3)n2)cn1 [bimiralisib, 5-(4,6-Dimorpholino-1,3,5-triazin-2-yl)-4-(trifluoromethyl)pyridin-2-amine] here?
**A.** The value was “not proportional to doses”.

**Q.** What about the “Median half-life, calculated from accumulation” value (continuous schedule, range < 6–146 h) of the same compound?
**A.** The value was 39.5 h.

**Q.** And the “Median accumulation ratio (cycle 1 Day 15 AUC0–8h versus Day -3 AUC0–8h)” value (continuous schedule, range, <1.0–9.3)?
**A.** Its value is 2.9.

**Q.** What about the AUC(0-t) (80 mg, Continuous Dosing, 80 mg, Day 15, 7 patients, read-out: AUC0–8 Geometric Mean (%CV)) of the same compound?
**A.** Its AUC(0-t) is 4090 ng·h/mL.

**Q.** And the Cmax [1]?
**A.** The Cmax was 766 ng/mL.

**Q.** What about the Tmax [1] of the same compound?
**A.** Its Tmax is 1 h.

**Q.** What about the AUC(0-t) (80 mg, Continuous Dosing, 80 mg, Day -3, 11 patients, read-out: AUC0–8 Geometric Mean (%CV)) of the same compound?
**A.** Its AUC(0-t) is 1530 ng·h/mL.

**Q.** And the AUC(0-t) (80 mg, Continuous Dosing, 80 mg, Day -3, 11 patients, read-out: AUC0–24 Geometric Mean (%CV))?
**A.** Its AUC(0-t) is 4290 ng·h/mL.

**Q.** And the Cmax [2]?
**A.** The Cmax was 407 ng/mL.

**Q.** What about the Tmax [2] of the same compound?
**A.** Its Tmax is 2 h.

**Q.** What about the AUC(0-t) (80 mg, Intermittent Dose Schedule A, 80 mg, Day 8, 3 patients, read-out: AUC0–8 Geometric Mean (%CV)) of the same compound?
**A.** The AUC(0-t) was 2350 ng·h/mL.

**Q.** What about the Cmax [3] of the same compound?
**A.** Its Cmax is 614 ng/mL.

**Q.** What about the Tmax [3] of the same compound?
**A.** Its Tmax is 1 h.

**Q.** What about the AUC(0-t) (80 mg, Intermittent Dose Schedule A, 80 mg, Day 8, n = 1, read-out: AUC0–24 Geometric Mean (%CV)) of the same compound?
**A.** The AUC(0-t) was 6740 ng·h/mL.

**Q.** And the AUC(0-t) (80 mg, Intermittent Dose Schedule A, 80 mg, Day -3, 4 patients, read-out: AUC0–8 Geometric Mean (%CV))?
**A.** Its AUC(0-t) is 1580 ng·h/mL.

**Q.** What about the AUC(0-t) (80 mg, Intermittent Dose Schedule A, 80 mg, Day -3, 4 patients, read-out: AUC0–24 Geometric Mean (%CV)) of the same compound?
**A.** Its AUC(0-t) is 3540 ng·h/mL.

**Q.** What about the Cmax [4] of the same compound?
**A.** Its Cmax is 410 ng/mL.

**Q.** What about the Tmax [4] of the same compound?
**A.** The Tmax was 1.5 h.

**Q.** What about the AUC(0-t) (80 mg, Intermittent Dose Schedule B, 80 mg, Day 1, 4 patients, read-out: AUC0–8 Geometric Mean (%CV)) of the same compound?
**A.** The AUC(0-t) was 1680 ng·h/mL.

**Q.** What about the AUC(0-t) (80 mg, Intermittent Dose Schedule B, 80 mg, Day 1, 4 patients, read-out: AUC0–24 Geometric Mean (%CV)) of the same compound?
**A.** Its AUC(0-t) is 4000 ng·h/mL.

**Q.** And the Cmax [5]?
**A.** Its Cmax is 341 ng/mL.

**Q.** And the Tmax [5]?
**A.** Its Tmax is 3 h.

**Q.** What about the AUC(0-t) (80 mg, Intermittent Dose Schedule B, 80 mg, Day 8, 4 patients, read-out: AUC0–8 Geometric Mean (%CV)) of the same compound?
**A.** The AUC(0-t) was 2600 ng·h/mL.

**Q.** What about the Cmax [6] of the same compound?
**A.** The Cmax was 681 ng/mL.

**Q.** What about the Tmax [6] of the same compound?
**A.** The Tmax was 1.5 h.

**Q.** And the AUC(0-t) (80 mg, Intermittent Dose Schedule B, 80 mg, Day 8, n = 3, read-out: AUC0–24 Geometric Mean (%CV))?
**A.** Its AUC(0-t) is 6350 ng·h/mL.

**Q.** And the AUC(0-t) (100 mg, Continuous Dosing, 100 mg, Day 1, 5 patients, read-out: AUC0–8 Geometric Mean (%CV))?
**A.** Its AUC(0-t) is 1690 ng·h/mL.

**Q.** And the AUC(0-t) (100 mg, Continuous Dosing, 100 mg, Day 1, 5 patients, read-out: AUC0–24 Geometric Mean (%CV))?
**A.** Its AUC(0-t) is 4660 ng·h/mL.

**Q.** What about the Cmax [7] of the same compound?
**A.** The Cmax was 441 ng/mL.

**Q.** What about the Tmax [7] of the same compound?
**A.** Its Tmax is 1.7 h.

**Q.** What about the AUC(0-t) (100 mg, Continuous Dosing, 100 mg, Day 15, 2 patients, read-out: AUC0–8 Geometric Mean (%CV)) of the same compound?
**A.** Its AUC(0-t) is 5750 ng·h/mL.

**Q.** What about the Cmax [8] of the same compound?
**A.** The Cmax was 1110 ng/mL.

**Q.** What about the Tmax [8] of the same compound?
**A.** Its Tmax is 2 h.

**Q.** What about the AUC(0-t) (100 mg, Intermittent Dose Schedule A, 100 mg, Day 8, 3 patients, read-out: AUC0–8 Geometric Mean (%CV)) of the same compound?
**A.** The AUC(0-t) was 3910 ng·h/mL.

**Q.** What about the Tmax (100 mg, Intermittent Dose Schedule A, 100 mg, Day 8, 3 patients) of the same compound?
**A.** The Tmax was 1 h.

**Q.** What about the AUC(0-t) (100 mg, Intermittent Dose Schedule A, 100 mg, Day 8, n = 2, read-out: AUC0–24 Geometric Mean (%CV)) of the same compound?
**A.** Its AUC(0-t) is 12400 ng·h/mL.

**Q.** What about the AUC(0-t) (100 mg, Intermittent Dose Schedule A, 100 mg, Day -3, 4 patients, read-out: AUC0–8 Geometric Mean (%CV)) of the same compound?
**A.** Its AUC(0-t) is 1970 ng·h/mL.

**Q.** What about the AUC(0-t) (100 mg, Intermittent Dose Schedule A, 100 mg, Day -3, 4 patients, read-out: AUC0–24 Geometric Mean (%CV)) of the same compound?
**A.** Its AUC(0-t) is 4170 ng·h/mL.

**Q.** What about the Cmax [9] of the same compound?
**A.** The Cmax was 543 ng/mL.

**Q.** And the Tmax [9]?
**A.** Its Tmax is 1 h.

**Q.** And the AUC(0-t) (100 mg, Intermittent Dose Schedule B, 100 mg, Day 1, 7 patients, read-out: AUC0–8 Geometric Mean (%CV))?
**A.** The AUC(0-t) was 1920 ng·h/mL.

**Q.** What about the AUC(0-t) (100 mg, Intermittent Dose Schedule B, 100 mg, Day 1, 7 patients, read-out: AUC0–24 Geometric Mean (%CV)) of the same compound?
**A.** The AUC(0-t) was 4520 ng·h/mL.

**Q.** And the Cmax [10]?
**A.** Its Cmax is 562 ng/mL.

**Q.** And the Tmax [10]?
**A.** The Tmax was 2 h.

**Q.** What about the AUC(0-t) (100 mg, Intermittent Dose Schedule B, 100 mg, Day 8, 6 patients, read-out: AUC0–8 Geometric Mean (%CV)) of the same compound?
**A.** The AUC(0-t) was 2880 ng·h/mL.

**Q.** What about the Cmax [11] of the same compound?
**A.** The Cmax was 714 ng/mL.

**Q.** And the Tmax [11]?
**A.** The Tmax was 1.5 h.

**Q.** What about the AUC(0-t) (100 mg, Intermittent Dose Schedule B, 100 mg, Day 8, n = 4, read-out: AUC0–24 Geometric Mean (%CV)) of the same compound?
**A.** The AUC(0-t) was 6200 ng·h/mL.

**Q.** What about the AUC(0-t) (120 mg, Continuous Dosing, 120 mg, Day 1, 5 patients, read-out: AUC0–8 Geometric Mean (%CV)) of the same compound?
**A.** Its AUC(0-t) is 2990 ng·h/mL.

**Q.** And the AUC(0-t) (120 mg, Continuous Dosing, 120 mg, Day 1, 5 patients, read-out: AUC0–24 Geometric Mean (%CV))?
**A.** The AUC(0-t) was 7600 ng·h/mL.

**Q.** And the Cmax [12]?
**A.** The Cmax was 876 ng/mL.

**Q.** And the Tmax [12]?
**A.** Its Tmax is 2 h.

**Q.** What about the AUC(0-t) (120 mg, Continuous Dosing, 120 mg, Day 15, 1 patient, read-out: AUC0–8 Geometric Mean (%CV)) of the same compound?
**A.** Its AUC(0-t) is 6430 ng·h/mL.

**Q.** And the Cmax [13]?
**A.** The Cmax was 982 ng/mL.

**Q.** And the Tmax [13]?
**A.** Its Tmax is 8 h.

**Q.** And the AUC(0-t) (120 mg, Intermittent Dose Schedule A, 120 mg, Day 8, 3 patients, read-out: AUC0–8 Geometric Mean (%CV))?
**A.** Its AUC(0-t) is 3710 ng·h/mL.

**Q.** And the AUC(0-t) (120 mg, Intermittent Dose Schedule A, 120 mg, Day 8, 3 patients, read-out: AUC0–24 Geometric Mean (%CV))?
**A.** The AUC(0-t) was 8940 ng·h/mL.

**Q.** And the Cmax [14]?
**A.** Its Cmax is 872 ng/mL.

**Q.** What about the Tmax [14] of the same compound?
**A.** The Tmax was 1 h.

**Q.** And the AUC(0-t) (120 mg, Intermittent Dose Schedule A, 120 mg, Day -3, 4 patients, read-out: AUC0–8 Geometric Mean (%CV))?
**A.** The AUC(0-t) was 2590 ng·h/mL.
